≈ marks a conversion by molar mass, not a printed value.
What was measured:
[1] = system: mouse lymphocytic leukemia P388 tumor cells; assay: in vitro cytotoxicity, P388 tumor cells, 72 hours (Test 4); assay type: cell-based; settings: 50% inhibition of cell growth, 37° C.
Experimental: A suspension of mouse lymphocytic leukemia P388 tumor cells was prepared from a diluted ascitic fluid using Hanks' solution after 7 days of tumor implantation, and centrifuged at 1000 rpm for 15 minutes at cold temperature. The cells were adjusted at a concentration of 2.5×10^6 cell/ml in MEM Dulbecco medium supplemented with 10% foetal bovine serum, penicillin G (60 μg/ml) and streptomycin (20 μg/ml). Then, cells were treated with the graded doses of the test compounds in plastic tissue culture dishes at 37° C. and incubated for 72 hours in humidified atmosphere of 5% carbon dioxide. Concentration of the substance required for 50% inhibition of cell growth (IC50 value) (μg/ml) was determined by plotting the logarithms of the drug concentration versus the growth rate (percentage of control) of the treated cells.

L1210 Leukemia [2] = assay: L1210 Leukemia ascitic tumor in mice (Test 5); assay type: in vivo, mice (BDF1 or CDF1); settings: 10.0 mg/kg i.p., days 1-9, CDF1 mice; in physiological saline
Excerpt: L1210 Leukemia (1×10^5 cells), maintained i.p. by serial passage in female DBA/2 mice, was implanted i.p. to female BDF1 or CDF1 mice on day 0, and the test compounds or vehicle were given i.p. to the mice once a day on days 1-9.
(§1) Ten mice were used for each test group, and twenty mice were used for each vehicle-treated control group.
(§2) Drug efficacy against the ascitic tumors is expressed as percentage of the median (mean) survival time of the test group to that of the control group. [formula] .circle.2 Results

B16 Melanoma [3] = assay: B16 Melanoma in mice (Test 5); assay type: in vivo, mice (BDF1); settings: 3.2 mg/kg i.p., days 1-9; in physiological saline
Experimental: (§3) B16 Melanoma (1:10 brei, 0.5 ml), maintained s.c. by serial passage in female C57BL/6 mice, was implanted i.p. to female BDF1 mice on day 0, and the test compounds or vehicle were given i.p. to the mice once a day on days 1-9.
as §1, §2

Colon 38 carcinoma = assay: in vivo murine solid tumor model, Colon 38 carcinoma (Test 7); parameters: species or system mice; settings: 10.0 mg/kg i.v., days 1, 4, 7 and 10; tumor weight on day 21
Experimental: Colon 38 carcinoma (fragment, 2×2×2 mm), maintained s.c. by serial passage in female C57BL/6 mice, was implanted s.c. to female BDFhd 1 mice on day 0, and the test compounds or vehicle were given i.v. to the mice once a day on days 1, 4, 7 and 10. Tumor weight was measured on day 21.
(§4) Tumor weight was calculated as follows: (Tumor length and width were measured by caliper.)
(§5) Tumor weight (mg)=1/2×a×b^2, where a represents length and b represents width (mm).
Ten mice were used for each test group or vehicle-treated control group.
Drug efficacy against the solid tumor is expressed as percentage of the mean tumor weight of the test group to that of the control group. [formula]

Human LX-1 lung = Human LX-1 lung tumor in nude mice (Test 9); assay type: in vivo, human (in BALB/c nu/nu mice); settings: 5.6 mg/kg i.v., days 10, 14 & 17; evaluation day 21
Experimental: (§6) Human LX-1 lung or MX-1 mammary (each fragment, 2×2×2 mm), maintained s.c. by serial passage in male BALB/c nu/nu mice, was implanted s.c. to male BALB/c nu/nu mice on day 0, and the test compounds or vehicle were given i.v. to the mice once a day on specified days in Table 9.
as §4, §5
(§7) Tumor weights (initial) and (last) were calculated on the first injection day (just before dosing) and on day 21, 27 or 28 (the last evaluation day), respectively.
(§8) Five mice were used for each test group and 5 or 10 mice were used for each vehicle-treated control group.
(§9) Drug efficacy was expressed as percentage of mean tumor weight of the test group to that of the control group. [formula]

Human MX-1 mammary = Human MX-1 mammary tumor in nude mice (Test 9); assay type: in vivo, human (in BALB/c nu/nu mice); settings: 32. mg/kg (so in the source) i.v., days 10, 14 & 17; evaluation day 21
Experimental: as §6, §4, §5, §7, §8, §9

L1210 Leukemia [4] = assay: L1210 Leukemia in mice, graded doses (Test 11); assay type: in vivo, mice (CDF1); settings: days 1-9
Experimental: L1210 Leukemia (1×10^5 cells), maintained i.p. by serial passage in female DBA/2 mice, was implanted i.p. to female CDF1 mice on day 0, and the test compounds or vehicle were given i.p. to the mice once a day on days 1-9.
as §1
(§10) Compound R (which was dissolved in 10% polyoxyethylated (60 mol) hydrogenated castor oil in physiological saline solution)
(§11) Drug efficacy against the ascitic tumors is expressed as percentage of the median (mean) survival time of the test group to that of the control group. [formula]

B16 Melanoma [5] = assay: B16 Melanoma in mice, graded doses (Test 11); assay type: in vivo, mice (BDF1); settings: days 1-9
Experimental: as §3, §1, §10, §11

SMILES: CC(=O)OCc1cc(OC(C)=O)c2c(c1)N1CC3C(N3C(C)=O)C(O)(O1)C2COC(N)=O (stereo not drawn) [Compound T, 11-Acetyl-4-acetoxymethyl-8-carbamoyloxymethyl-9-hydroxy-14-oxa-1,11-diazatetracyclo[7.4.1.0^2,7.0^10,12]tetradeca-2,4,6-trien-6-yl acetate]
- IC50 [1]: 0.02 µg/mL

SMILES: COc1cc(C=O)cc2c1C(COC(N)=O)C1(OC(C)=O)ON2CC2C1N2C(C)=O (stereo not drawn) [Compound V, 11-Acetyl-8-carbamoyloxymethyl-4-formyl-6-methoxy-14-oxa-1,11-diazatetracyclo[7.4.1.0^2,7.0^10,12]tetradeca-2,4,6-trien-9-yl acetate]
- IC50 [1]: 0.02 µg/mL

SMILES: C=C1c2c(OC(C)=O)cc(C=O)cc2N2CC3C(N3C(C)=O)C1(O)O2 (stereo not drawn) [Compound S, 11-Acetyl-4-formyl-9-hydroxy-8-methylene-14-oxa-1,11-diazatetracyclo[7.4.1.0^2,7.0^10,12]tetradeca-2,4,6-trien-6-yl acetate]
- IC50 [1]: 0.02 µg/mL

SMILES: CC(=O)Oc1cc(C=O)cc2c1C(COC(N)=O)C1(OC(C)=O)ON2CC2C1N2C(C)=O (stereo not drawn) [Compound R, 11-Acetyl-4-formyl-8-carbamoyloxymethyl-14-oxa-1,11-diazatetracyclo[7.4.1.0^2,7.0^10,12]tetradeca-2,4,6-trien-6,9-diyl diacetate]
- IC50 [1]: 0.05 µg/mL
- T/C (L1210 Leukemia [2]): 197%
- T/C (B16 Melanoma [3]): > 316%
- 1-T'/C' (Colon 38 carcinoma): 100%
- 1-T"/C" (Human LX-1 lung): 90%
- 1-T"/C" (Human MX-1 mammary): 99%
- T/C (L1210 Leukemia [4]; 0.1 mg/kg i.p.): 125%
- T/C (L1210 Leukemia [4]; 0.32 mg/kg i.p.): 131%
- T/C (L1210 Leukemia [4]; 1.0 mg/kg i.p.): 156%
- T/C (L1210 Leukemia [4]; 3.2 mg/kg i.p.): 150%
- T/C (L1210 Leukemia [4]; 5.6 mg/kg i.p.): 163%
- T/C (L1210 Leukemia [4]; 10 mg/kg i.p.): 106%
- T/C (L1210 Leukemia [4]; 18 mg/kg i.p.): 88%
- T/C (B16 Melanoma [5]; 0.0032 mg/kg i.p.): 106%
- T/C (B16 Melanoma [5]; 0.01 mg/kg i.p.): 122%
- T/C (B16 Melanoma [5]; 0.032 mg/kg i.p.): 166%
- T/C (B16 Melanoma [5]; 0.1 mg/kg i.p.): 219%
- T/C (B16 Melanoma [5]; 0.32 mg/kg i.p.): 213%
- T/C (B16 Melanoma [5]; 0.56 mg/kg i.p.): > 291%
- T/C (B16 Melanoma [5]; 1.0 mg/kg i.p.): > 375%
- T/C (B16 Melanoma [5]; 1.8 mg/kg i.p.): > 375%
- T/C (B16 Melanoma [5]; 3.2 mg/kg i.p.): 225%
- T/C (B16 Melanoma [5]; 5.6 mg/kg i.p.): 134%
- T/C (B16 Melanoma [5]; 10 mg/kg i.p.): 66%
- Solubility (Solubility; acetone): Soluble
- Solubility (Solubility; chloroform): Soluble
- Solubility (Solubility; methanol): Soluble
- Solubility (Solubility; water): Insoluble

SMILES: CC(=O)OCc1cc(OC(C)=O)c2c(c1)N1CC3C(N3C(C)=O)C(OC(C)=O)(O1)C2COC(N)=O (stereo not drawn) [Compound U, 4-Acetoxymethyl-11-acetyl-8-carbamoyloxymethyl-14-oxa-1,11-diazatetracyclo[7.4.1.0^2,7.0^10,12]tetradeca-2,4,6-trien-6,9-diyl diacetate]
- IC50 [1]: 0.01 to 0.02 µg/mL

SMILES: COc1cc(C=O)cc2c1C(COC(N)=O)C1(O)ON2CC2C1N2C(C)=O (stereo not drawn) [Compound W, 11-Acetyl-4-formyl-9-hydroxy-6-methoxy-14-oxa-1,11-diazatetracyclo[7.4.1.0^2,7.0^10,12]tetradeca-2,4,6-trien-8-ylmethyl carbamate]
- IC50 [1]: 0.01 µg/mL (≈ 0.0265 µM)

From patent US4861774A, “Method of treating tumors using tetracyclo compounds” (priority 1984, dated 1989)
